What was measured:
Type in all cases: binding
Conditions in all cases: Compound Concentration 10 µM
panel of 442 kinases [1] = target: T1, panel of 442 kinases (Homo sapiens, UniProt Q04759)
T1 construct: purchased KINOMEscan
From the text: (§1) We assessed the selectivity of members of this scaffold using the KINOMEscan methodology across a near comprehensive panel of 442 kinases [[18,27]].

panel of 442 kinases [2] = target: T2, panel of 442 kinases (Homo sapiens, UniProt O94921)
T2 construct: purchased KINOMEscan
From the text: as §1

panel of 442 kinases [3] = target: T3, panel of 442 kinases (Homo sapiens, UniProt Q92772)
T3 construct: purchased KINOMEscan
T3 sequence (Q92772 1-493): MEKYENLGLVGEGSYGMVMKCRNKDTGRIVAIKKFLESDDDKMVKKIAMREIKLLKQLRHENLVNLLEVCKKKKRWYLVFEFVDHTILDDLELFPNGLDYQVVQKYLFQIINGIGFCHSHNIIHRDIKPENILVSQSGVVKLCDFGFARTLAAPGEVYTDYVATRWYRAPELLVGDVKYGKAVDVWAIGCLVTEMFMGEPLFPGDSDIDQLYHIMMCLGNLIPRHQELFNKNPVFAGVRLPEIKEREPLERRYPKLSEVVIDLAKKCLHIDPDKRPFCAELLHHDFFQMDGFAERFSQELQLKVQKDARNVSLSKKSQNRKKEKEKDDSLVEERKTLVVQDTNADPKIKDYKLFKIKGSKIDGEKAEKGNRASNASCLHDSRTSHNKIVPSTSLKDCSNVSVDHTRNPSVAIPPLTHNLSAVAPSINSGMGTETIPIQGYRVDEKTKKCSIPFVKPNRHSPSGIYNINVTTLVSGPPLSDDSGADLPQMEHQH
From the text: as §1

T2 sequence (O94921 whole entry): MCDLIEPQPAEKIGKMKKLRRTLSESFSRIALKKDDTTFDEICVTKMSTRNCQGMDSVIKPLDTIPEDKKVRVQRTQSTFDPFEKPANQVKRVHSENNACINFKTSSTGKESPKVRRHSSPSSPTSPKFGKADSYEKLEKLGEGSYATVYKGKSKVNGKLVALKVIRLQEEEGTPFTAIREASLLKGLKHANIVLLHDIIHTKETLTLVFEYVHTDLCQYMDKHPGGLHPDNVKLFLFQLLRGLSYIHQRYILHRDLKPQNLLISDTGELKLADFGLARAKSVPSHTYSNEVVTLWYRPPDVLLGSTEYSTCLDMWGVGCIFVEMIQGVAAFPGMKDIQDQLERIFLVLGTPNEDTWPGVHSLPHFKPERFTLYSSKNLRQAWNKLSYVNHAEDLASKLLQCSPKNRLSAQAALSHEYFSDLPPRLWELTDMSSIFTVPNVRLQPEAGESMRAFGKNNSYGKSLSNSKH
T1 sequence (Q04759 whole entry): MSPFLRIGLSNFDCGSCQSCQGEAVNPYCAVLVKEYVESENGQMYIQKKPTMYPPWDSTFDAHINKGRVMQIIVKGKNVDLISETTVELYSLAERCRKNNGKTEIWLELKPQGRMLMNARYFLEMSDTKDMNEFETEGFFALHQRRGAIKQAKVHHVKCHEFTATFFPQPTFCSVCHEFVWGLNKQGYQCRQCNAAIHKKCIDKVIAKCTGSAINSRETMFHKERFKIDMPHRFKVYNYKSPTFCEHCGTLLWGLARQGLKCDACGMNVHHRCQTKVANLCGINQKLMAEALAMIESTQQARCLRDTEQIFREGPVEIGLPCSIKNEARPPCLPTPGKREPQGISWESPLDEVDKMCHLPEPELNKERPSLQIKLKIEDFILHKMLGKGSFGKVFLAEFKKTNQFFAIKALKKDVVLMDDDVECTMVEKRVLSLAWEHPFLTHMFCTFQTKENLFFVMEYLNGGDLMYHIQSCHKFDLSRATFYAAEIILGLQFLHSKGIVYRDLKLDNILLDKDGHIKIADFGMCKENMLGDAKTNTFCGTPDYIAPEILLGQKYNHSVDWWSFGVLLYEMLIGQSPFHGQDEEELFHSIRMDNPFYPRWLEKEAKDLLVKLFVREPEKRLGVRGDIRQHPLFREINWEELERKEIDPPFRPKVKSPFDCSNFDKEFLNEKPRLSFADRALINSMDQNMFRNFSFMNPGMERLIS

Compound | KINOMEscan: PRKCQ (panel of 442 kinases [1]) | KINOMEscan: PFTK1 (panel of 442 kinases [2]) | KINOMEscan: CDKL2 (panel of 442 kinases [3])
COc1cc(C(=O)N2CCC(N3CCN(C)CC3)CC2)ccc1Nc1ncc2c(n1)N(C1CCCC1)c1ccccc1C(=O)N2C [Compound 25, 11-cyclopentyl-2-((2-methoxy-4-(4-(4-methylpiperazin-1-yl)piperidine-1-carbonyl)phenyl)amino)-5-methyl-5H-benzo[e]pyrimido[5,4-b][1,4]diazepin-6(11H)-one] | 100 | 100 | 95
CCOc1cc(C(=O)N2CCC(N3CCN(C)CC3)CC2)ccc1Nc1ncc2c(n1)N(C1CCCC1)c1ccccc1C(=O)N2C [Compound 26] | 100 | 100 | 99
COc1cc(C(=O)N2CCC(N3CCN(C)CC3)CC2)ccc1Nc1ncc2c(n1)N(C)c1ccccc1C(=O)N2C [15 (LRRK2-IN-1)] | 100 | 81 | 100
